According to patent US10201587B2, “Methods of inhibiting and treating biofilms using glycopeptide antibiotics” (MELINTA THERAPEUTICS, INC., priority 2008, dated 2019):
Converted amounts (≈) assume the structure as drawn. Like-named read-outs stand apart in the source and are kept apart here.

Experiments:
S. aureus ATCC 29213 [1] = test: Membrane depolarization, DiSC3(5) fluorescence; type: cell-based; details: 30 min
Protocol: Bacteria were grown overnight in CAMHB and sub-cultured the following day in CAMHB to exponential phase (OD600≈0.25). Exponential- and stationary-phase cells were washed in membrane assay buffer with or without 5 mM glucose, respectively, and resuspended at an OD600=0.25. DiSC3(5) was added to a final concentration of 1.5 μM and the solution was incubated in the dark at ambient temperature for 30 minutes to allow loading of the fluorescent dye into cell membranes. After the loading period, cells were diluted 50-fold (OD600=0.005) in depolarization buffer with or without glucose for exponential- or stationary-phase cells, respectively. Assays were initiated by the addition of antimicrobial agents over a range of concentrations and were monitored in real time by fluorescence spectroscopy (λex=612, λem=665) for a period of 30 minutes. […] Experiments were repeated three times and produced similar results; results from one assay are presented.

S. aureus ATCC 29213 [2] = test: Short duration (2 h) time-kill in membrane assay buffer; type: cell-based
Protocol: Short duration (2 h) time-kill studies were performed in membrane assay buffer (see below) to characterize the killing of S. aureus ATCC 29213 under conditions used in the membrane depolarization and permeability assays. Exponential- and stationary-phase S. aureus ATCC 29213 cells were diluted to an OD600=0.005 (approx 10^6 CFU/mL) in membrane assay buffer (10 mM HEPES-C1, pH 7.5, 50 μg/mL CaCl2) with or without 5 mM glucose, respectively. Experiments were initiated by the addition of antimicrobial agents at the indicated concentrations and bacteria were enumerated by serial-dilution plating.

[3] = test system: stationary-phase MRSA ATCC 43300; test: Ultrastructure by transmission electron microscopy of thin sections; type: cell-based, S. aureus; details: 3 hours in nutrient-depleted CAMHB; 1 μg/mL oritavancin, 16 μg/mL vancomycin
Protocol: Bacteria were fixed in 2.5% glutaraldehyde to cross-link proteins and help preserve morphological structure. Prior to embedding, the samples were treated with fresh 2.5% (vol/vol) glutaraldehyde in HEPES buffer (pH, 6.8) for 2 hours. The samples were then post-fixed in 2.0% (wt/vol) osmium tetroxide, followed by en bloc-staining with 2.0% (wt/vol) uranyl acetate, as a heavy-metal stain, to add contrast to the cells. The cells were then dehydrated through a series of ethanol washes then embedded in LR White resin. Once polymerized by curing, each culture sample was thin sectioned and stained by uranyl acetate and lead citrate so as to view the internal cellular constituents and the juxtaposition of cell envelope layers such as the plasma membrane and cell wall. Transmission electron microscopy was used to view the thin sections using a Philips CM10 under standard operating conditions at 100 kV.

MRSA ATCC 33591 = test: MBEC system in vitro biofilm (MIC and MBEC); type: cell-based, S. aureus
Protocol: (§1) The commercially-available MBEC™ system (Innovotech; Edmonton, AB, Canada) was used following the manufacturer's protocol (17) to establish in vitro biofilms of S. aureus and to determine the minimal biofilm eradication concentration (MBEC) of oritavancin and comparator antimicrobial agents. The MBEC represents the concentration of antimicrobial agent required to sterilize the biofilm after 24 hours of exposure. The MBEC™ system also allows for the determination of the minimal inhibitory concentration (MIC) of the test agent against planktonic cells under the conditions of the biofilm assay.
(§2) 150 μL of bacterial inocula at 10^7 CFU/mL in tryptic soy broth was aliquoted into each well of an MBEC plate. Biofilms were established for 24 hours in a rotary incubator at 37° C. and 150 rpm. For experiments involving 72-hour biofilms, peg lids were transferred each day to 96-well plates containing 150 μL/well of fresh tryptic soy broth and incubated another 24 hours. Peg lids with established biofilms were washed once in sterile saline (200 μL/well) and then placed in plates containing antimicrobial agents diluted in CAMHB (200 μL/well). Antimicrobial agents were serially diluted in CAMHB in 96-well plates and peg lids were exposed for 24 hours or for the indicated times. Following antimicrobial challenge, peg lids were washed once in sterile saline then placed in recovery plates containing CAMHB (200 μL/well). The recovery plates were sonicated for 5 minutes in an ultrasonic sonicating bath (VWR Aquasonic model 550D) at the maximum setting then incubated for 24 hours and the MBECs recorded. MBECs were determined from at least three independent experiments; results represent the ranges of MBECs obtained. To enumerate the biofilm colony forming units (CFUs) on individual control pegs, pegs were broken off the lid using sterile forceps placed in 1 ml sterile saline, sonicated for 5 min and vortexed for 1 min at the highest setting. Bacteria were then enumerated by serial-dilution plating.
(§3) To prevent loss of oritavancin due to binding to vessel surfaces (3), the CLSI now recommends inclusion of 0.002% polysorbate-80 for oritavancin broth microdilution MIC determinations (9).

MSSA ATCC 29213 [4] = test: MBEC system in vitro biofilm (MIC and MBEC); type: cell-based, S. aureus; details: for MIC: Staphylococcus aureus
Protocol: as §1, §2, §3

VRSA VRS5 = test: MBEC system in vitro biofilm (MIC and MBEC); type: cell-based, S. aureus
Protocol: as §1, §2, §3

[5] = test system: S. aureus strains (MSSA ATCC 29213, MRSA ATCC 33591, VRSA VRS5); test: MBEC system in vitro biofilm, statements over all three strains; type: cell-based; details: 24-hour biofilm
Protocol: as §1
150 μL of bacterial inocula at 10^7 CFU/mL in tryptic soy broth was aliquoted into each well of an MBEC plate. Biofilms were established for 24 hours in a rotary incubator at 37° C. and 150 rpm. For experiments involving 72-hour biofilms, peg lids were transferred each day to 96-well plates containing 150 μL/well of fresh tryptic soy broth and incubated another 24 hours. […] The recovery plates were sonicated for 5 minutes in an ultrasonic sonicating bath (VWR Aquasonic model 550D) at the maximum setting then incubated for 24 hours and the MBECs recorded. MBECs were determined from at least three independent experiments; results represent the ranges of MBECs obtained. […]

MSSA ATCC 29213 [6] = details: absence of 0.002% polysorbate-80; cited from earlier work
[7] = 24-hour biofilm, 24 hours of exposure, oritavancin without polysorbate-80

Compound: CN[C@H](CC(C)C)C(=O)N[C@H]1C(=O)N[C@@H](CC(N)=O)C(=O)N[C@H]2C(=O)N[C@H]3C(=O)N[C@H](C(=O)N[C@H](C(=O)O)c4cc(O)cc(O)c4-c4cc3ccc4O)[C@H](O[C@H]3C[C@](C)(N)[C@@H](O)[C@H](C)O3)c3ccc(c(Cl)c3)Oc3cc2cc(c3O[C@@H]2O[C@H](CO)[C@@H](O)[C@H](O)[C@H]2O[C@H]2C[C@](C)(NCc3ccc(-c4ccc(Cl)cc4)cc3)[C@@H](O)[C@H](C)O2)Oc2ccc(cc2Cl)[C@H]1O [Oritavancin, N-(4-(4-chlorophenyl)benzyl)A82846B]
- dissipation of membrane potential (DiSC3(5) fluorescence) (S. aureus ATCC 29213 [1]; exponential-phase cells): occurred in a concentration-dependent manner
- dissipation of membrane potential (DiSC3(5) fluorescence) (S. aureus ATCC 29213 [1]; stationary-phase cells): occurred in a concentration-dependent manner
- reduction in CFU (S. aureus ATCC 29213 [2]; exponential-phase cells, within 5 minutes, 16 μg/mL): 4 log
- reduction in CFU (S. aureus ATCC 29213 [2]; stationary-phase cells, within the 2-hour time period, oritavancin at fCmax 800, daptomycin at fCmax): approximately 1 log
- septal mid-line staining [3]: conspicuously absent
- MBEC (MRSA ATCC 33591; [7]): 0.5 to 4 µg/mL
- MIC (MRSA ATCC 33591; Staphylococcus aureus, 24 h): 0.5 to 4 µg/mL (≈ 0.279 to 2.23 µM)
- MBEC (MSSA ATCC 29213 [4]; 24-hour biofilm, 1 hour exposure): 4 µg/mL
- MBEC (MSSA ATCC 29213 [4]; [7]): 2 to 4 µg/mL
- MBEC (MSSA ATCC 29213 [4]; 72-hour biofilms): 8 to 32 µg/mL
- MBEC relative to respective planktonic MIC (MSSA ATCC 29213 [4]; 72-hour biofilms, within each experiment): no more than one doubling dilution higher
- planktonic MIC relative to CLSI quality control range (MSSA ATCC 29213 [4]; MBEC assay): within quality control range
- MIC (MSSA ATCC 29213 [4]; 24 h): 2 µg/mL (≈ 1.12 µM)
- MIC (MSSA ATCC 29213 [4]; 72 h, read-out: planktonic MIC): 4 to 32 µg/mL (≈ 2.23 to 17.8 µM)
- MBEC (VRSA VRS5; [7]): 2 to 8 µg/mL
- MIC (VRSA VRS5; Staphylococcus aureus, VRSA, 24 h): 2 to 8 µg/mL (≈ 1.12 to 4.46 µM)
- MBEC ([5]; all three S. aureus strains): 2 to 8 µg/mL
- MBEC relative to respective planktonic MIC ([5]; in each experiment): within one doubling dilution
- CLSI quality control range of MIC (MSSA ATCC 29213 [6]): 0.5 to 2 µg/mL
